Read-outs that look alike come from different tables or passages of the source.
Tests used:
Assay in all cases: Biological Example 1 glasshouse assay for herbicidal activity
Assay type in all cases: in vivo
[1] = system: Abutilon theophrasti (ABUTH); details: 312 h, 13 days after application, read-out: percentage phytotoxicity ABUTH
Procedure: (§1) Seeds of a variety of test plant species were sown in standard soil** in pots. After cultivation for one day (pre-emergence) or after 8 days cultivation (post-emergence) under controlled conditions in a glasshouse (at 24/16° C., day/night; 14 hours light; 65% humidity), the plants were sprayed with an aqueous spray solution derived from the formulation of the technical active ingredient (the test herbicide) in acetone/water (50:50) solution containing 0.5% Tween 20 (polyoxyethylene sorbitan monolaurate, CAS Reg. No. 9005-64-5). The test plants were then grown on under controlled conditions in a glasshouse (at 24/16° C., day/night; 14 hours light; 65% humidity) and watered twice daily. 13 Days after application of the test herbicide, for pre- and post-emergence, the test was evaluated visually for percentage phytotoxicity to each plant (where 100%=total damage to plant; 0%=no damage to plant). Generally, each test herbicide is only tested on 1 plant per plant species for each application rate tested and for each application timing. **The “standard soil” in Biological Example 1 is usually a “sand” or “sandy loam” type of soil.
(§2) Dicotyledonous weeds: ABUTH=Abutilon theophrasti; AMARE=Amaranthus retroflexus. Grassy monocotyledonous weeds: SETFA=Setaria faberi; ALOMY=Alopecurus myosuroides; ECHCG=Echinochloa crus-galli; ZEAMX=Zea mays (corn, maize, e.g. volunteer corn).

[2] = system: Zea mays (ZEAMX, corn, maize, e.g. volunteer corn); details: Zea mays, 312 h, 13 days after application, read-out: percentage phytotoxicity ZEAMX
Procedure: as §1, §2

[3] = system: Alopecurus myosuroides (ALOMY); details: 312 h, 13 days after application, read-out: percentage phytotoxicity ALOMY
Procedure: as §1, §2

[4] = system: Echinochloa crus-galli (ECHCG); details: Echinochloa crus-galli, 312 h, 13 days after application, read-out: percentage phytotoxicity ECHCG
Procedure: as §1, §2

[5] = system: Amaranthus retroflexus (AMARE); details: Amaranthus retroflexus, 312 h, 13 days after application, read-out: percentage phytotoxicity AMARE
Procedure: as §1, §2

[6] = system: Setaria faberi (SETFA); details: 312 h, 13 days after application, read-out: percentage phytotoxicity SETFA
Procedure: as §1, §2

Question: What does the source list for C#Cc1cc(F)c(C2C(=O)C3CCC(C3)C2=O)c(OC)c1 (stereo not drawn) [Compound B1]?
Answer: pest or weed control at 8 g/ha ([1]; post-emergence, post-emergence): 50%; pest or weed control at 30 g/ha ([1]; post-emergence, post-emergence): 50%; pest or weed control at 250 g/ha ([1]; post-emergence, post-emergence): 70%; pest or weed control at 8 g/ha ([1]; pre-emergence, pre-emergence): 10%; pest or weed control at 30 g/ha ([1]; pre-emergence, pre-emergence): 20%; pest or weed control at 250 g/ha ([1]; pre-emergence, pre-emergence): 0%; pest or weed control at 8 g/ha ([2]; post-emergence, post-emergence): 80%; pest or weed control at 30 g/ha ([2]; post-emergence, post-emergence): 90%; pest or weed control at 250 g/ha ([2]; post-emergence, post-emergence): 100%; pest or weed control at 8 g/ha ([2]; pre-emergence, pre-emergence): 0%; pest or weed control at 30 g/ha ([2]; pre-emergence, pre-emergence): 70%; pest or weed control at 250 g/ha ([2]; pre-emergence, pre-emergence): 100%; pest or weed control at 8 g/ha ([3]; post-emergence): 0%; pest or weed control at 30 g/ha ([3]; post-emergence): 20%; pest or weed control at 250 g/ha ([3]; post-emergence): 80%; pest or weed control at 8 g/ha ([3]; pre-emergence): 0%; pest or weed control at 30 g/ha ([3]; pre-emergence): 10%; pest or weed control at 250 g/ha ([3]; pre-emergence): 90%; pest or weed control at 8 g/ha ([4]; post-emergence, post-emergence): 20%; pest or weed control at 30 g/ha ([4]; post-emergence, post-emergence): 70%; pest or weed control at 250 g/ha ([4]; post-emergence, post-emergence): 100%; pest or weed control at 8 g/ha ([4]; pre-emergence, pre-emergence): 50%; pest or weed control at 30 g/ha ([4]; pre-emergence, pre-emergence): 50%; pest or weed control at 250 g/ha ([4]; pre-emergence, pre-emergence): 90%; pest or weed control at 8 g/ha ([5]; post-emergence, post-emergence): 0%; pest or weed control at 30 g/ha ([5]; post-emergence, post-emergence): 0%; pest or weed control at 250 g/ha ([5]; post-emergence, post-emergence): 20%; pest or weed control at 8 g/ha ([5]; pre-emergence, pre-emergence): 30%; pest or weed control at 30 g/ha ([5]; pre-emergence, pre-emergence): 50%; pest or weed control at 250 g/ha ([5]; pre-emergence, pre-emergence): 30%; pest or weed control at 8 g/ha ([6]; post-emergence, post-emergence): 70%; pest or weed control at 30 g/ha ([6]; post-emergence, post-emergence): 70%; pest or weed control at 250 g/ha ([6]; post-emergence, post-emergence): 90%; pest or weed control at 8 g/ha ([6]; pre-emergence, pre-emergence): 40%; pest or weed control at 30 g/ha ([6]; pre-emergence, pre-emergence): 60%; pest or weed control at 250 g/ha ([6]; pre-emergence, pre-emergence): 100%

Question: What does the source list for CC#Cc1cc(F)c(C2=C(OC(=O)OCC)C3CCC(C3)C2=O)c(OC)c1 (stereo not drawn) [Compound P2]?
Answer: pest or weed control at 8 g/ha ([1]; post-emergence, post-emergence): 10%; pest or weed control at 30 g/ha ([1]; post-emergence, post-emergence): 30%; pest or weed control at 250 g/ha ([1]; post-emergence, post-emergence): 80%; pest or weed control at 30 g/ha ([1]; pre-emergence, pre-emergence): 20%; pest or weed control at 250 g/ha ([1]; pre-emergence, pre-emergence): 60%; pest or weed control at 8 g/ha ([2]; post-emergence, post-emergence): 90%; pest or weed control at 30 g/ha ([2]; post-emergence, post-emergence): 100%; pest or weed control at 250 g/ha ([2]; post-emergence, post-emergence): 100%; pest or weed control at 30 g/ha ([2]; pre-emergence, pre-emergence): 90%; pest or weed control at 250 g/ha ([2]; pre-emergence, pre-emergence): 100%; pest or weed control at 8 g/ha ([3]; post-emergence): 70%; pest or weed control at 30 g/ha ([3]; post-emergence): 90%; pest or weed control at 250 g/ha ([3]; post-emergence): 90%; pest or weed control at 30 g/ha ([3]; pre-emergence): 80%; pest or weed control at 250 g/ha ([3]; pre-emergence): 100%; pest or weed control at 8 g/ha ([4]; post-emergence, post-emergence): 90%; pest or weed control at 30 g/ha ([4]; post-emergence, post-emergence): 100%; pest or weed control at 250 g/ha ([4]; post-emergence, post-emergence): 100%; pest or weed control at 30 g/ha ([4]; pre-emergence, pre-emergence): 80%; pest or weed control at 250 g/ha ([4]; pre-emergence, pre-emergence): 100%; pest or weed control at 8 g/ha ([5]; post-emergence, post-emergence): 20%; pest or weed control at 30 g/ha ([5]; post-emergence, post-emergence): 20%; pest or weed control at 250 g/ha ([5]; post-emergence, post-emergence): 40%; pest or weed control at 30 g/ha ([5]; pre-emergence, pre-emergence): 40%; pest or weed control at 250 g/ha ([5]; pre-emergence, pre-emergence): 70%; pest or weed control at 8 g/ha ([6]; post-emergence, post-emergence): 60%; pest or weed control at 30 g/ha ([6]; post-emergence, post-emergence): 90%; pest or weed control at 250 g/ha ([6]; post-emergence, post-emergence): 100%; pest or weed control at 30 g/ha ([6]; pre-emergence, pre-emergence): 50%; pest or weed control at 250 g/ha ([6]; pre-emergence, pre-emergence): 90%

Question: CC#Cc1cc(F)c(C2C(=O)C3CCC(C)(C2=O)C3(C)C)c(OCC(F)(F)F)c1 (stereo not drawn) [Compound A9] was tested. Which pest or weed control at 250 g/ha ([1]; post-emergence, post-emergence) did it give?
Answer: 0%

Question: What about the pest or weed control at 250 g/ha ([2]; post-emergence, post-emergence) of the same compound?
Answer: 20%

Question: And the pest or weed control at 250 g/ha ([3]; post-emergence)?
Answer: 10%

Question: And the pest or weed control at 250 g/ha ([4]; post-emergence, post-emergence)?
Answer: 10%

Question: And the pest or weed control at 250 g/ha ([5]; post-emergence, post-emergence)?
Answer: 0%

Question: And the pest or weed control at 250 g/ha ([6]; post-emergence, post-emergence)?
Answer: 20%

Question: CC#Cc1cc(F)c(C2C(=O)C3CCC(C3)C2=O)c(OCC)c1 (stereo not drawn) [Compound A4] was tested. Which pest or weed control at 30 g/ha ([1]; post-emergence, post-emergence) did it give?
Answer: 10%

Question: And the pest or weed control at 250 g/ha ([1]; post-emergence, post-emergence)?
Answer: 30%

Question: What about the pest or weed control at 30 g/ha ([1]; pre-emergence, pre-emergence) of the same compound?
Answer: 20%

Question: And the pest or weed control at 250 g/ha ([1]; pre-emergence, pre-emergence)?
Answer: 30%

Question: And the pest or weed control at 30 g/ha ([2]; post-emergence, post-emergence)?
Answer: 100%

Question: What about the pest or weed control at 250 g/ha ([2]; post-emergence, post-emergence) of the same compound?
Answer: 100%

Question: And the pest or weed control at 30 g/ha ([2]; pre-emergence, pre-emergence)?
Answer: 80%

Question: And the pest or weed control at 250 g/ha ([2]; pre-emergence, pre-emergence)?
Answer: 100%

Question: What about the pest or weed control at 30 g/ha ([3]; post-emergence) of the same compound?
Answer: 80%

Question: And the pest or weed control at 250 g/ha ([3]; post-emergence)?
Answer: 90%

Question: And the pest or weed control at 30 g/ha ([3]; pre-emergence)?
Answer: 70%

Question: What about the pest or weed control at 250 g/ha ([3]; pre-emergence) of the same compound?
Answer: 90%

Question: What about the pest or weed control at 30 g/ha ([4]; post-emergence, post-emergence) of the same compound?
Answer: 90%

Question: And the pest or weed control at 250 g/ha ([4]; post-emergence, post-emergence)?
Answer: 100%

Question: What about the pest or weed control at 30 g/ha ([4]; pre-emergence, pre-emergence) of the same compound?
Answer: 90%

Question: And the pest or weed control at 250 g/ha ([4]; pre-emergence, pre-emergence)?
Answer: 100%

Question: And the pest or weed control at 30 g/ha ([5]; post-emergence, post-emergence)?
Answer: 20%

Question: And the pest or weed control at 250 g/ha ([5]; post-emergence, post-emergence)?
Answer: 50%

Question: And the pest or weed control at 30 g/ha ([5]; pre-emergence, pre-emergence)?
Answer: 40%

Question: What about the pest or weed control at 250 g/ha ([5]; pre-emergence, pre-emergence) of the same compound?
Answer: 50%

Question: What about the pest or weed control at 30 g/ha ([6]; post-emergence, post-emergence) of the same compound?
Answer: 70%

Question: And the pest or weed control at 250 g/ha ([6]; post-emergence, post-emergence)?
Answer: 100%

Question: And the pest or weed control at 30 g/ha ([6]; pre-emergence, pre-emergence)?
Answer: 50%

Question: And the pest or weed control at 250 g/ha ([6]; pre-emergence, pre-emergence)?
Answer: 70%
